Measurements: patent US11440903B2, “Salt form and crystal form of compound as FGFR4 inhibitor and preparation method thereof” (GUANGDONG ZHONGSHENG PHARMACEUTICAL CO., LTD, priority 2017, dated 2022)

What was measured:
[1] = Stability of the crystal form on stirring as suspension in solvent (40° C., 2 days); format: physicochemical
Description: 30 mg of the compound represented by formula (I) was weighed and added into a glass flask, 400 μL acetonitrile-water (1:1) was added to form a suspension. A sample of the suspension was placed on a magnetic stirrer (40° C.) for a dark stirring experiment. The sample of the suspension was centrifuged after stirring at 40° C. for 2 days, and then the residual sample was dried in a vacuum drying oven (30° C.) overnight to give a crystal form A of the compound represented by formula (I). The XRPD pattern of the crystal form A of the compound represented by formula (I) is shown in FIG. 1, the DSC pattern is shown in FIG. 2, and the TGA pattern is shown in FIG. 3.
30 mg of the compound represented by formula (I) was weighed and added into a glass flask, and 400 μL ethyl acetate was added to form a suspension. A sample of the suspension was placed on a magnetic stirrer (40° C.) for dark stirring experiment. The sample of the suspension was centrifuged after stirring at 40° C. for 2 days, and then the residual sample was dried in a vacuum drying oven (30° C.) overnight. The crystal form was detected by XRPD to give a crystal form A of the compound represented by formula (I).
30 mg of the compound represented by formula (I) was weighed and added into a glass flask, and 400 μL methanol was added to form a suspension. A sample of the suspension was placed on a magnetic stirrer (40° C.) for dark stirring experiment. The sample of the suspension was centrifuged after stirring at 40° C. for 2 days, and then the residual sample was dried in a vacuum drying oven (30° C.) overnight to give a crystal form B of the compound represented by formula (I). The XRPD pattern of the crystal form B of the compound represented by formula (I) is shown in FIG. 4, the DSC pattern is shown in FIG. 5, and the TGA pattern is shown in FIG. 6.
50 mg of the compound represented by formula (I) was weighed and added into a 1.5 mL liquid vial, and 200 μL methanol was added thereto, the obtained mixture was homogeneously mixed under ultrasound. The dissolved sample was quickly centrifuged, and the supernatant was placed in a centrifuge tube, the mouth of the tube was packed with a pierced aluminum foil, and then the tube was placed in a fume cupboard for volatilization; the sample of the suspension was placed on a magnetic stirring heater (40° C.) for stirring (in dark), and quickly centrifuged after 2 days. The resultant solid was collected and dried at 30° C. in a vacuum drying oven overnight to give the crystal form C of the compound represented by formula (I). The XRPD pattern of the crystal form C of the compound represented by formula (I) is shown in FIG. 7, the DSC pattern is shown in FIG. 8, and the TGA pattern is shown in FIG. 9.
50 mg of the compound represented by formula (I) was weighed and added into a 1.5 mL liquid vial, and 200 μL ethanol was added thereto, and the obtained mixture was homogeneously mixed under ultrasound. The dissolved sample was quickly centrifuged, the supernatant was placed into a centrifuge tube, and the mouth of the tube was packed with a pierced aluminum foil, and placed in a fume cupboard for volatilization; the sample of the suspension was placed on a magnetic stirring heater (40° C.) for stirring (in dark), and quickly centrifuged after 2 days. The solid obtained as above was collected and dried at 30° C. in a vacuum drying oven overnight to give a crystal form D of the compound represented by formula (I). The XRPD pattern of the crystal form D of the compound represented by formula (I) is shown in FIG. 10, the DSC pattern is shown in FIG. 11, and the TGA pattern is shown in FIG. 12.
35 mg of the compound represented by formula (II) was weighed and added into a 1.5 mL liquid vial, and 400 μL methanol was added thereto, and the obtained mixture was homogeneously mixed under ultrasound. […]

[2] = Solid stability test of the crystal forms (influence factors and acceleration tests; appearance, XRPD, HPLC content and impurities); format: physicochemical; conditions: for stability under acceleration conditions, conclusion in words / thermal stability (high temperature), conclusion in words / photostability (stability under light radiation), conclusion in words / stability under high humidity conditions, conclusion in words: conclusion of influence factors and acceleration tests
Source text: A sample of the crystal form A was placed on the bottom of a glass sample bottle, and spread to a thin layer. The sample stored under high temperature, high humidity, and acceleration conditions was placed in a bottle of which the mouth was packed with a pierced aluminum foil to ensure the sample to be sufficiently exposed to ambient air; the sample stored under light radiation conditions was placed at room temperature in a standing bottle of which the mouth was open, the sample was exposed to a light resource, and sampled for detection after being radiated by sufficient energy. Samples were taken and analyzed at various time points, and the test results were compared with the initial test results of 0 day, the inspection items included appearance, content and impurities, and the test results are shown in Table 9.
A sample of the crystal form B (10 mg) was placed on the bottom of a glass sample bottle, and spread to a thin layer. The sample stored under high temperature, high humidity, and acceleration conditions were placed in a bottle of which the mouth was packed with a pierced aluminum foil to ensure the sample to be sufficiently exposed to ambient air; the sample stored under light radiation conditions was placed at room temperature in a standing bottle of which the mouth was open, the sample was exposed to a light resource, and sampled for detection after being radiated by sufficient energy, the control sample stored in dark (open, the whole sample bottle was sealed with aluminum foil to keep the content in dark) and the sample stored under light radiation conditions were placed together to exclude environmental influence on the samples. Samples were taken and analyzed at various time points, and the test results were compared with the initial test results of 0 day, the inspection items included appearance, crystal form, content and impurities, the test results are shown in Table 10.
(§1) A sample of the crystal form C was taken and placed on the bottom of a glass sample bottle, and spread to a thin layer. The sample stored under high temperature, high humidity, and acceleration conditions was placed in a bottle of which the mouth was packed with a pierced aluminum foil to ensure the sample to be sufficiently exposed to ambient air; the sample stored under light radiation conditions was placed at room temperature in a standing bottle of which the mouth was open, the sample was exposed to a light resource, and sampled for detection after being radiated by sufficient energy. Samples were taken and analyzed at various time points, and the test results were compared with the initial test results of 0 day.
as §1, with “D” for “C”
A sample of the crystal form E (10 mg) was taken and placed on the bottom of a glass sample bottle, and spread to a thin layer. […]

[3] = Acceleration test (40° C./relative humidity of 75%, open), 5 days
[4] = Acceleration test (40° C./relative humidity of 75%, open), 10 days
[5] = High humidity (room temperature/relative humidity of 92.5%, open), 5 days
[6] = High humidity (room temperature/relative humidity of 92.5%, open), 10 days
[7] = High temperature (60° C., open), 5 days
[8] = High temperature (60° C., open), 10 days
[9] = Light radiation (total illumination: 1.2 × 10^6 Lux·hr), 5 days
[10] = Light radiation (total illumination: 1.2 × 10^6 Lux·hr), 10 days

SMILES | Appearance ([2]; 0 day (initial)) | Content (%) ([2]; 0 day (initial)) | Total Impurities (%) ([2]; 0 day (initial)) | Appearance [2, 3] | Appearance [2, 4] | Content (%) [2, 4] [%] | Total Impurities (%) [2, 4] [%] | Appearance [2, 5] | Appearance [2, 6] | Content (%) [2, 6] [%] | Total Impurities (%) [2, 6] [%] | Appearance [2, 7] | Appearance [2, 8] | Content (%) [2, 8] [%] | Total Impurities (%) [2, 8] [%] | Appearance [2, 9] | Appearance [2, 10] | Content (%) [2, 10] [%] | Total Impurities (%) [2, 10] [%] | stability under acceleration conditions, conclusion in words [2] | other results
C=CC(=O)N[C@H]1COC[C@H]1Nc1ncc(/C=C(\F)c2c(Cl)c(OC)cc(OC)c2Cl)cn1 [Crystal Form C] | Off-white | 98.96 | 1.25 | Off-white | Off-white | 98.96 | 1.26 | Off-white | Off-white | 98.22 | 2.08 | Off-white | Off-white | 98.93 | 1.27 | Off-white | Off-white | 98.35 | 1.86 | good | stability in the methanol solution ([1]; stirring in methanol at 40° C. for 2 days): substantially high stability; Crystal Form (XRPD) ([2]; 0 day (initial)): form C; Crystal Form (XRPD) [2, 4]: form C; Crystal Form (XRPD) [2, 6]: form C; Crystal Form (XRPD) [2, 8]: form C; Crystal Form (XRPD) [2, 10]: form C; thermal stability (high temperature), conclusion in words [2]: good
C=CC(=O)N[C@H]1COC[C@H]1Nc1ncc(/C=C(\F)c2c(Cl)c(OC)cc(OC)c2Cl)cn1 [Crystal Form D] | Off-white | 99.33 | 0.90 | Off-white | Off-white | 99.38 | 0.96 | Off-white | Off-white | 99.36 | 0.89 | Off-white | Off-white | 99.32 | 0.94 | Off-white | Off-white | 99.41 | 0.86 | good | stability in the ethanol solution ([1]; stirring in ethanol at 40° C. for 2 days): substantially high stability; photostability (stability under light radiation), conclusion in words [2]: good; stability under high humidity conditions, conclusion in words [2]: good; thermal stability (high temperature), conclusion in words [2]: good
C=CC(=O)N[C@H]1COC[C@H]1Nc1ncc(/C=C(\F)c2c(Cl)c(OC)cc(OC)c2Cl)cn1.CS(=O)(=O)O [Crystal Form F] | White | 99.26 | 0.72 | White | White | 99.22 | 0.71 | White | White | 99.24 | 0.73 | White | White | 99.22 | 0.79 | White | White | 99.30 | 0.73 | good | stability in the ethanol-water solution ([1]; stirring in ethanol-water (1:1) at 40° C. for 2 days): substantially high stability; Crystal Form (XRPD) ([2]; 0 day (initial)): form F; Crystal Form (XRPD) [2, 4]: form F; Crystal Form (XRPD) [2, 6]: form F; Crystal Form (XRPD) [2, 8]: form F; Crystal Form (XRPD) [2, 10]: form F; photostability (stability under light radiation), conclusion in words [2]: good; stability under high humidity conditions, conclusion in words [2]: good; thermal stability (high temperature), conclusion in words [2]: slight impurity generation
